Experiments:
[1] = Liver microsome test (metabolic stability); assay type: in vitro ADME, human
Protocol: In an incubation system with a total volume of 250 μL, an incubation solution of hum an liver microsomes containing 0.5 mg/mL protein was formulated with a 50 mmol/L PBS buffer (pH=7.4). Before the start of incubation, 2.5 μL of a 100 μmol/L compound to be tested was mixed with 197.5 μL of the above incubation buffer, pre-incubated for 5 min in a 37° C. water bath, and then added with 50 μL of a reducing coenzyme II solution (5 mmol/L) that was likewise pre-incubated for 5 min to start a reaction (in the reaction system, the protein content of liver microsomes from various species was 0.5 g/L, and the final concentration of the compound to be tested was 1 μmol/L), incubated in a 37° C. water bath with shaking, and taken out at 0, 5, 15, 30, and 60 min respectively. 600 μL of a methanol solution of mixed positive and negative internal standards with internal standards Terfenadine (positive ion internal standard, 25 ng/mL) and Tolbutamide (negative ion internal standard, 50 ng/mL) was immediately added to terminate the reaction. The incubation solution after termination was shaken for 2 min and centrifuged (4° C., 16000 r/min) for 10 min, and the supernatant was taken for LC-MS/MS detection to quantitatively analyze the remaining amount of the parent drug. (DMSO=0.1%).
The concentration of the compound at 0 mi incubation was regarded as 100%, and the concentrations at other incubation time points were converted into the remaining percentages. The natural logarithm of the remaining percentage at each time point was linearly regressed against the incubation time, and the slope k was calculated. According to the formula T1/2=−0.693/k, the in vitro half-life was calculated. Clearance in liver microsomes (CLint (μL/min/mg protein)=Ln (2)*1000/T1/2 (min/Protein Conc (mg/ml)).

[2] = target: TYK2 (Homo sapiens, UniProt P29597); assay: Kinase activity test (γ33P-ATP isotopic method), TYK2; assay type: biochemical; conditions: 33P-ATP 10 μM, 2 h reaction
Sequence of TYK2 (P29597 whole entry): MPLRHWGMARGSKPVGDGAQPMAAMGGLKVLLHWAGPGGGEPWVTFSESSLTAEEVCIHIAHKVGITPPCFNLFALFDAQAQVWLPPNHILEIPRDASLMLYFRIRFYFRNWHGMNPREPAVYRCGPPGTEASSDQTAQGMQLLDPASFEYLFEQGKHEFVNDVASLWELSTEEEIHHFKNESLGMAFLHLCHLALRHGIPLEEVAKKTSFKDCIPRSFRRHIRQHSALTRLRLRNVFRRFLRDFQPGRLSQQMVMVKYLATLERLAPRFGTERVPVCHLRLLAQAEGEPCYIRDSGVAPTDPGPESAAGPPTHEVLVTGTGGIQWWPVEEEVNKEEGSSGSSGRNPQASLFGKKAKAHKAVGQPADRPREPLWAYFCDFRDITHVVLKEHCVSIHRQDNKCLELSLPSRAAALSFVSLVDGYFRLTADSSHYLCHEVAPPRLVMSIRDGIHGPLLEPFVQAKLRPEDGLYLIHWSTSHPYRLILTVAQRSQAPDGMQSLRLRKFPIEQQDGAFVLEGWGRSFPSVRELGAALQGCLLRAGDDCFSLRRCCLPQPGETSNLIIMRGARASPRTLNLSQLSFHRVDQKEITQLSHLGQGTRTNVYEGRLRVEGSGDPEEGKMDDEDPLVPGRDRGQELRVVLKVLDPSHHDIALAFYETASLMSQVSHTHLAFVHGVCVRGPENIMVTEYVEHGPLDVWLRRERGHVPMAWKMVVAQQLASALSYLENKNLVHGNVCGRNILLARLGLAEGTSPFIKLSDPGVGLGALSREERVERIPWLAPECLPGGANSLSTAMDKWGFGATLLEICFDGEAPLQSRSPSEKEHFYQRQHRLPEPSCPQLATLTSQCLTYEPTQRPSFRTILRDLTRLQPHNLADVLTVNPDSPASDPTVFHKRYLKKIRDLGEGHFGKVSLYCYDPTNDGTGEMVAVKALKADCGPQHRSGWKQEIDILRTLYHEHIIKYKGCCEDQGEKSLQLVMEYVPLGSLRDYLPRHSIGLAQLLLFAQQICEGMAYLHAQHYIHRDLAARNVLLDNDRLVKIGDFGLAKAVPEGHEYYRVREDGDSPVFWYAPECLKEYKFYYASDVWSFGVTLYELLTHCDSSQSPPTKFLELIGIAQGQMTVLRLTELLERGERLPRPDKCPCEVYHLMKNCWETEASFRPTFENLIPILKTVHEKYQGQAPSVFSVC
Protocol: (§1) This experiment adopted a γ^33p-ATP isotopic test method to test the inhibitory effect of a compound on kinases JAK1, JAK2, JAK3 and TYK2, and obtained a half inhibitory concentration IC50 of the compound for inhibiting activity of the kinase.
(§2) 20 mM 4-hydroxyethylpiperazine ethanesulfonic acid buffer (Hepes, pH 7.5), 10 mM magnesium chloride (MgCl2), 1 mM ethylene glycol diethyl ether diamine tetraacetic acid (EGTA), 0.02% dodecyl polyethylene glycol ether (Brij35), 0.02 mg/ml bovine serum albumin (BSA), 0.1 mM sodium vanadate (Na3VO4), 2 mM dithiothreitol (DTT), and 1% dimethylsulfoxide (DMSO).
(§3) A compound is dissolved with 100% DMSO to a specific concentration, and then subjected to gradient dilution by an automatic sampling device to obtain the samples to be tested with different concentrations (DMSO solutions).
(§4) 3.1 diluting the reaction substrate with the basic reaction buffer;
(§5) 3.2 adding the kinase into the substrate solution, and gently mixing well;
(§6) 3.3 adding, by the automatic sampling system, the 100% DMSO diluted compounds with different concentrations into the kinase solution, and incubating for 20 min at room temperature; and
(§7) 3.4 adding ^33p-ATP (10 μM, 10 μCi/μl) at room temperature to initiate the kinase reaction for a duration of 2 h.
(§8) The unreacted ATP and the reaction-generated […] in the reaction were removed by an ion exchange filtering system, and then the amount of radioactivity of ^33p isotope in the substrate was detected.
(§9) According to the amount of radioactivity, the kinase activities in the systems added with the inhibitors of different concentrations were calculated, to obtain the inhibitors' effects of the compounds of different concentrations on the kinase activity; and fitting was performed with graphpad prism to obtain the inhibitory IC50 values of the compounds.

[3] = target: T1, JAK3 (Homo sapiens, UniProt P52333); assay: Kinase activity test (γ33P-ATP isotopic method), JAK3; assay type: biochemical; conditions: 33P-ATP 10 μM, 2 h reaction
T1 sequence (P52333 1-1124): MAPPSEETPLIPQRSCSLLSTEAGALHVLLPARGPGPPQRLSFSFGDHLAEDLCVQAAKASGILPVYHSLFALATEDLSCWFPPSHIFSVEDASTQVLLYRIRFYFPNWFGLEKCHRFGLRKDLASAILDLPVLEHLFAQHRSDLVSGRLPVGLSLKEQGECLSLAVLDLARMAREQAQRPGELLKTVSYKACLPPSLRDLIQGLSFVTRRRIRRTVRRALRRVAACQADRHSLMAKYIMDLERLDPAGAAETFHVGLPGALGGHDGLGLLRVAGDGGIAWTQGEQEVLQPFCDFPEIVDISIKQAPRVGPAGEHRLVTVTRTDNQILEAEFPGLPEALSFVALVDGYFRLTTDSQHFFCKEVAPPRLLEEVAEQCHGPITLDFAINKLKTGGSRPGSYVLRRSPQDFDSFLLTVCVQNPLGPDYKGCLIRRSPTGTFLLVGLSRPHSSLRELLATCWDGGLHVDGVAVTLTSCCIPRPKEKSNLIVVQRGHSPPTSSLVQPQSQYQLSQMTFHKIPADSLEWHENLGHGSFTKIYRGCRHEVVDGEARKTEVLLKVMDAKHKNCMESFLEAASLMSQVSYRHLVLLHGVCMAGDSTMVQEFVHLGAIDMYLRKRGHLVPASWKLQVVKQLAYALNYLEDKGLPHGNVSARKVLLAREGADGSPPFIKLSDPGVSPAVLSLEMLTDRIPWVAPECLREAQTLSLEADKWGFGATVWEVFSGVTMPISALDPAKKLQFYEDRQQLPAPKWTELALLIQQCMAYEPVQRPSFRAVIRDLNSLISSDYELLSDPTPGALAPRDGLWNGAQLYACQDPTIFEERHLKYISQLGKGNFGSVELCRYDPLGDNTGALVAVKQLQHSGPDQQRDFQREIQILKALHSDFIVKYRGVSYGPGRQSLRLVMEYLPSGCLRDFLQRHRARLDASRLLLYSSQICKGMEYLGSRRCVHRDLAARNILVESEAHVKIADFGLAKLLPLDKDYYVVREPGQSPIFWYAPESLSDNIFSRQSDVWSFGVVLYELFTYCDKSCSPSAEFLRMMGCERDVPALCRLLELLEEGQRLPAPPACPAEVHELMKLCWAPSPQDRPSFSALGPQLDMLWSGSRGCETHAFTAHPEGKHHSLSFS
Protocol: as §1, §2, §3, §4, §5, §6, §7, §8, §9

[4] = target: JAK1 (Homo sapiens, UniProt P23458); assay: Kinase activity test (γ33P-ATP isotopic method), JAK1; assay type: biochemical
Sequence of JAK1 (P23458 whole entry): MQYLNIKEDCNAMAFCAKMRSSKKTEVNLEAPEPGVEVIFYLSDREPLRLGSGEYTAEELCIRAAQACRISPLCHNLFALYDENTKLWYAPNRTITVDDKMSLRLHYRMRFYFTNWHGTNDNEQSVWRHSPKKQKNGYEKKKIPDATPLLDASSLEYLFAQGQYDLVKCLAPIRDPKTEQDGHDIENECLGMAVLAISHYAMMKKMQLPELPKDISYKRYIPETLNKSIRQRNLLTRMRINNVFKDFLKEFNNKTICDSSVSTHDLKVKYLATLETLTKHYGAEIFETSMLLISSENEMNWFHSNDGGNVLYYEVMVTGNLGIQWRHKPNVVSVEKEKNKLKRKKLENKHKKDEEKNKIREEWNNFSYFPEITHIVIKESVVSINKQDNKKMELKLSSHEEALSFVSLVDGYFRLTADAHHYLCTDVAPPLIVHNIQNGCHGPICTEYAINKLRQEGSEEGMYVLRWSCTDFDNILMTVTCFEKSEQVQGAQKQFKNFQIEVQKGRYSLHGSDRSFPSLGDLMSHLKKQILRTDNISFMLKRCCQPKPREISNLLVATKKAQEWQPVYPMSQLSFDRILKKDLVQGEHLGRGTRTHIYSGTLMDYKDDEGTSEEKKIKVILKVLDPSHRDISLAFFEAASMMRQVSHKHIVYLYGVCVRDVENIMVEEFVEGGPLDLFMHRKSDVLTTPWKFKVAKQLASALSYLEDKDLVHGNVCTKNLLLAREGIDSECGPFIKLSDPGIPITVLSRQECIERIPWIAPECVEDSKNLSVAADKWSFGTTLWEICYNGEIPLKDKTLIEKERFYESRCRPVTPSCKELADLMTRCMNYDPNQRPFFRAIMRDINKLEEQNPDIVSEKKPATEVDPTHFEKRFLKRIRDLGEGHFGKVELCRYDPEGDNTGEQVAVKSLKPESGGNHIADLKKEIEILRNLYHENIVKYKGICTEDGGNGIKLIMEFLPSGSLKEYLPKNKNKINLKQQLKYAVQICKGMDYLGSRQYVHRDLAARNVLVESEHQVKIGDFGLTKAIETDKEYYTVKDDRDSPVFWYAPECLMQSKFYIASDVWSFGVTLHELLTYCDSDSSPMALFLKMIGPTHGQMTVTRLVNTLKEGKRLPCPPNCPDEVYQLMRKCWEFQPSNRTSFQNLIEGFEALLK
Protocol: as §1, §2, §3, §4, §5, §6, §7, §8, §9

[5] = human liver microsomes, conclusion from Table 2

With `NC(=O)c1cnc2[nH]ccc2c1NN1CCC[C@H](C(=O)NCC(F)F)C1` [Example 2, (S)-4-(3-(2,2-difluoroethylcarbamoyl)piperidine-1-amino)-1H-7-azaindole-5-carboxamide] the “Remaining % (60 min)” value ([1]; human liver microsomes 0.5 mg/mL protein, compound 1 μmol/L, 37° C., 60 min) was 91.9%, the “metabolic half-life in liver microsomes compared with Tofacitinib (in words)” value [1, 5] was “significantly superior to the positive drug Tofacitinib” and the “metabolic stability in liver microsomes (in words)” value [1, 5] was “excellent metabolic activity in liver”. It also gave a half-life at 1 μmol/L ([1]; pH 7.4, human liver microsomes 0.5 mg/mL protein, compound 1 μmol/L, 37° C.) of 330 min, a microsomal CLint at 1 μmol/L ([1]; pH 7.4, human liver microsomes 0.5 mg/mL protein, compound 1 μmol/L, 37° C., read-out: Clint (μL/min/mg protein)) of 4.2 µL/min/mg and an IC50 [2] of 1.49 nM. For the same compound, the IC50 [3] was 3.1 nM, the IC50 ([4]; 33P-ATP 10 μM, 2 h reaction) was 0.15 nM and the “activity in inhibiting the JAK1 kinase compared with Tofacitinib (in words)” value ([4]; conclusion from Table 1) was “higher activity in inhibiting the JAK1 kinase than the positive drug control Tofacitinib”.

— patent publication US12304910B2, “Janus kinase (JAK) family inhibitor, preparation of same, and applications thereof” (JIANGSU VCARE PHARMATECH CO., LTD., priority 2019, dated 2025)
